Assays:
[1] = system: plasminogen activating activity in pleural fluid; test: Intrapleural inactivation of tPA and uPA plasminogen activating activity, empyema; assay type: in vivo, rabbit; conditions: infectious pleural injury
Procedure: Amidolytic activity was measured in clear 96‐well flat bottom plates from Costar (Corning Inc.) using a Synergy™ HT Hybrid Reader (BioTek, Winooski, VT). Amidolytic activity was calculated from the initial slopes of the time traces of the change in absorbance at 405 nm upon hydrolysis of chromogenic as described previously (Komissarov et al., 2009, 2013). The plasminogen activating activity was determined from the relative rate of activation of exogenous Glu‐plasminogen added to the reaction mixture containing 0.1–0.5 µl of pleural fluid in 0.1 ml of Hepes buffer solution with BSA (1 mg/ml) as previously described (Florova et al., 2013, 2018). The reaction mixtures (0.1 ml in black 96‐well flat bottom plates from Costar) contained 100 nM of human Glu‐plasminogen with 0.2 mM of SN‐5 plasmin fluorogenic substrate (HTI, Essex Junction, VT). Plasmin activity was measured by recording changes in the fluorescence emission at 470 nm (F470) with time (excitation at 352 nm) using a Synergy™ HT Hybrid Reader (BioTek, Winooski, VT). The level of plasminogen activating activity [PA] was calculated from slopes of linear dependences of F470 from square of time (t^2) (F470 = A [PA] t^2 + B; where A and B are constants), and results of measurements of standards with known concentrations of tcuPA and tctPA as previously described (Komissarov et al., 2009, 2013). […]

[2] = system: Streptococcus pneumoniae induced empyema; conditions: higher in empyema; ref Idell et al., 2007; cited from earlier work
Text: (§1) Plasminogen Activator Inhibitor‐1 (PAI‐1) is a mechanism‐based inhibitor of tissue type (tPA) and urokinase (uPA) plasminogen activators (PAs) (Carrell et al., 1991; Chaillan‐Huntington et al., 1997; Mourik et al., 1984) used for fibrinolytic therapy. Levels of PAI‐1 increase by up to three orders of magnitude in empyema (pleural sepsis), and organizing pleural injury (Aleman et al., 2003; Chung et al., 2005; Philip‐Joet et al., 1995), limiting endogenous and exogenous plasminogen activating activity that could help prevent or treat uncontrolled fibrin deposition induced by inflammation. First, DSP alone was used to treat pleural injury in both models to determine its effects on the endogenous fibrinolytic system. The results (Figure 2) clearly indicate that even a relatively high dose of DSP (2.0 mg/kg) is insufficient to mobilize endogenous fibrinolysis effectively once pleural injury has developed; there was no reversal effect with DSP alone. DSP alone, even at a 4‐fold higher dose (8.0 mg/kg), was also ineffective (GLIS>10) in treatment of empyema (Figure 2). Next, PAI‐1‐TFT with ...

[3] = system: chemically induced (TCN) pleural injury; conditions: bolus, ref Idell et al., 2007; cited from earlier work
Text: as §1

Row | Substance | kobs of intrapleural inactivation ([1]; with 2.0–8.0 mg/kg DSP) [min⁻¹] | MED for empyema relative to MED in TCN-induced pleural injury [2] [fold] | Minimal effective dose (MED) of plasminogen activator alone [3] [mg/kg] | kobs of intrapleural inactivation ([1]; with 2.0 mg/kg DSP) [min⁻¹]
1 | Alteplase [sctPA, reference compound] | 0.024 ± 0.010 | 13.8 | 0.145 | –
2 | Prourokinase [scuPA] | – | 4 | 0.5 | 0.014 ± 0.008
